In one series the test system is M. tuberculosis H37Rv. The series is described as follows: MIC90 against M. tuberculosis in liquid medium. The class given is cell-based, Mycobacterium tuberculosis. To be noted: liquid medium 7H9-Tw-OADC, aerobic, 5 days, average ± SD of two independent experiments, read-out: MIC (MIC90, minimum concentration required to inhibit growth of M. tuberculosis by 90%).
A further series relates to HepG2 cells. Nature of the series: Cytotoxicity against HepG2 cell line (CellTiter-Glo). To be noted: for Selectivity index (SI) = IC50/MIC90: HepG2 IC50 / M. tuberculosis MIC90; for IC50: Homo sapiens, 48 h, HepG2, 2 days incubation, read-out: IC50 (concentration required to reduce the viability of HepG2 cells by 50%). The class given is cell-based. A general note: In ATP-based viability assays light output follows the ATP content of the culture.

Where [1] appears, read: Mycobacterium tuberculosis, H37RV, 120 h.

SMILES strings stand for the structures. Values after ≈ are worked out from the molar mass of the structure shown. Like-named read-outs stand apart in the source and are kept apart here.

Consider `COc1ccc(CCNc2cc(-c3ccccc3F)nc3ncnn23)cc1` [Compound 14, 5-(2-Fluorophenyl)-N-(4-methoxyphenethyl)-[1,2,4]triazolo[1,5-a]pyrimidin-7-amine], for which the melting point is 153 to 155 °C. For the same compound, the MIC90 with M. tuberculosis H37Rv (setting [1]) is 3 ± 0.21 µM (≈ 1.09 µg/mL). Moreover, in the series with HepG2 cells, the “Selectivity index (SI) = IC50/MIC90” value is listed as more than 30 and the IC50 was more than 100 µM.
The compound `c1ccc(-c2cc(NCCC3CCCCC3)n3ncnc3n2)cc1` [Compound 36, N-(2-Cyclohexylethyl)-5-phenyl-[1,2,4]triazolo[1,5-a]pyrimidin-7-amine] came in with a melting point of 168 to 169 °C. Further, in the series with M. tuberculosis H37Rv (setting [1]), the MIC90 is 17 ± 2.1 µM (≈ 5.46 µg/mL). Moreover, in the series with HepG2 cells, the “Selectivity index (SI) = IC50/MIC90” value was more than 6 and the IC50 is more than 100 µM.
The compound `CCc1ccc(CCNc2cc(-c3ccccc3)nc3ncnn23)cc1` [Compound 45, N-(4-Ethylphenethyl)-5-phenyl-[1,2,4]triazolo[1,5-a]pyrimidin-7-amine] came in with a melting point of 152 to 154 °C. For the same compound, the MIC90 in the series on M. tuberculosis H37Rv (setting [1]) was found to be 0.74 ± 0.1 µM (≈ 0.254 µg/mL). In the series with HepG2 cells, the “Selectivity index (SI) = IC50/MIC90” value is more than 138 and the IC50 was more than 100 µM.
Compound `c1ccc(CCNc2cc(-c3ccccn3)nc3ncnn23)cc1` [Compound 51, N-Phenethyl-5-(pyridin-2-yl)-[1,2,4]triazolo[1,5-a]pyrimidin-7-amine] displayed a melting point of 214 to 215 °C. Also, in the series with M. tuberculosis H37Rv (setting [1]), the MIC90 is 2.4 ± 1.3 µM (≈ 0.759 µg/mL). For the same compound, in the series on HepG2 cells, the “Selectivity index (SI) = IC50/MIC90” value is recorded as more than 46 and the IC50 was more than 100 µM.
`Cc1ccc(CCNc2cc(-c3ccccn3)nc3ncnn23)cc1` [Compound 55, N-(4-Methylphenethyl)-5-(pyridin-2-yl)-[1,2,4]triazolo[1,5-a]pyrimidin-7-amine]: the melting point was 194 to 196 °C. Also, the MIC90 with M. tuberculosis H37Rv (setting [1]) came to 0.52 ± 0.1 µM (≈ 0.172 µg/mL). Further, in the series with HepG2 cells, the “Selectivity index (SI) = IC50/MIC90” value is recorded as more than 196 and the IC50 was more than 100 µM.
On to `COc1ccc(CCNc2cc(-c3ccc(F)cc3)nc3ncnn23)cc1` [Compound 13, 5-(4-Fluorophenyl)-N-(4-methoxyphenethyl)-[1,2,4]triazolo[1,5-a]pyrimidin-7-amine], for which the melting point lay in the range of 153 to 155 °C. The MIC90 with M. tuberculosis H37Rv (setting [1]) turned out to be 4.4 ± 2 µM (≈ 1.6 µg/mL). Moreover, the IC50 in the series on HepG2 cells is 89 µM.
The compound `c1ccc(CCCNc2cc(-c3ccccc3)nc3ncnn23)cc1` [Compound 40, 5-Phenyl-N-(3-phenylpropyl)-[1,2,4]triazolo[1,5-a]pyrimidin-7-amine] displayed a melting point of 143 to 145 °C. For the same compound, the MIC90 in the series with M. tuberculosis H37Rv (setting [1]) was more than 20 µM. Moreover, the IC50 with HepG2 cells turned out to be 8.7 µM.
The compound `CCc1cc(NCCc2ccc(OC)cc2)n2ncnc2n1` [Compound 21, 5-ethyl-N-(4-methoxyphenethyl)-[1,2,4]triazolo[1,5-a]pyrimidin-7-amine] gave a melting point of 70 to 72 °C. Further, the MIC90 with M. tuberculosis H37Rv (setting [1]) was more than 20 µM. For the same compound, the IC50 with HepG2 cells is more than 100 µM.
The matching figures for `CNc1cc(-c2ccccc2)nc2ncnn12` [Compound 29, N-Methyl-5-phenyl-[1,2,4]triazolo[1,5-a]pyrimidin-7-amine]: 200 to 202 °C, more than 20 µM and more than 20 µM.
`CCNc1cc(-c2ccccc2)nc2ncnn12` [Compound 30, N-Ethyl-5-phenyl-[1,2,4]triazolo[1,5-a]pyrimidin-7-amine] returned a melting point of 170 to 172 °C. Further, the MIC90 in the series on M. tuberculosis H37Rv (setting [1]) is more than 20 µM. Further, the IC50 in the series with HepG2 cells worked out at 37 µM.
With `FC(F)(F)c1ccc(CCNc2cc(-c3ccccc3)nc3ncnn23)cc1` [Compound 47, 5-Phenyl-N-(4-(trifluoromethyl)phenethyl)-[1,2,4]triazolo[1,5-a]pyrimidin-7-amine], the melting point was in the range of 183 to 184 °C. In addition, the MIC90 in the series with M. tuberculosis H37Rv (setting [1]) came to 2.7 ± 0.7 µM (≈ 1.04 µg/mL). Besides, in the series on HepG2 cells, the “Selectivity index (SI) = IC50/MIC90” value is recorded as more than 38 and the IC50 was more than 100 µM.
`COc1ccc(CCNc2cc(-c3ccc(OC)cc3)nc3ncnn23)cc1` [Compound 7, N-(4-Methoxyphenethyl)-5-(4-methoxyphenyl)-[1,2,4]triazolo[1,5-a]pyrimidin-7-amine] came in with a melting point of 130 to 131 °C. The MIC90 in the series with M. tuberculosis H37Rv (setting [1]) is more than 20 µM. Moreover, the IC50 with HepG2 cells is more than 100 µM.
In turn, `c1ccc(-c2cc(NC3CC3)n3ncnc3n2)cc1` [Compound 34, N-Cyclopropyl-5-phenyl-[1,2,4]triazolo[1,5-a]pyrimidin-7-amine] displayed a melting point of 193 to 195 °C. The MIC90 in the series with M. tuberculosis H37Rv (setting [1]) is more than 20 µM. In addition, the IC50 in the series on HepG2 cells was more than 100 µM.
The compound `CCc1ccc(CCNc2cc(-c3ccccn3)nc3ncnn23)cc1` [Compound 56, N-(4-Ethylphenethyl)-5-(pyridin-2-yl)-[1,2,4]triazolo[1,5-a]pyrimidin-7-amine] registered a melting point of 154 to 155 °C. In addition, the MIC90 in the series with M. tuberculosis H37Rv (setting [1]) amounted to 0.2 ± 0.02 µM (≈ 0.0689 µg/mL). Besides, in the series on HepG2 cells, the “Selectivity index (SI) = IC50/MIC90” value stood at 220 and the IC50 came out at 44 µM.
For the compound `COc1ccc(CCNc2cc(C3CCCC3)nc3ncnn23)cc1` [Compound 24, 5-Cyclopentyl-N-(4-methoxyphenethyl)-[1,2,4]triazolo[1,5-a]pyrimidin-7-amine], the melting point is 99 to 100 °C. Moreover, the MIC90 with M. tuberculosis H37Rv (setting [1]) was 5.5 ± 0.07 µM (≈ 1.86 µg/mL). In the series with HepG2 cells, the “Selectivity index (SI) = IC50/MIC90” value worked out at 17 and the IC50 is 95 µM.
Take `COc1ccc(CCNc2cc(-c3ccc(C(F)(F)F)cc3)nc3ncnn23)cc1` [Compound 15, N-(4-Methoxyphenethyl)-5-(4-(trifluoromethyl)phenyl)-[1,2,4]triazolo[1,5-a]pyrimidin-7-amine]: the melting point is 191 to 193 °C. For the same compound, in the series with M. tuberculosis H37Rv (setting [1]), the MIC90 is more than 20 µM. Further, the IC50 in the series with HepG2 cells is more than 100 µM.
As to `c1ccc(CCNc2cc(-c3ccccc3)nc3ncnn23)cc1` [Compound 39, N-Phenethyl-5-phenyl-[1,2,4]triazolo[1,5-a]pyrimidin-7-amine], the melting point lay in the range of 164 to 165 °C. Besides, in the series on M. tuberculosis H37Rv (setting [1]), the MIC90 worked out at 7.7 ± 0.7 µM (≈ 2.43 µg/mL). In the series with HepG2 cells, the “Selectivity index (SI) = IC50/MIC90” value came out at 3.5 and the IC50 was determined as 27 µM.
The matching figures for `Fc1ccc(CCNc2cc(-c3ccccn3)nc3ncnn23)cc1` [Compound 57, N-(4-Fluorophenethyl)-5-(pyridin-2-yl)-[1,2,4]triazolo[1,5-a]pyrimidin-7-amine]: 190 to 192 °C, 4.8 ± 1.3 µM (≈ 1.6 µg/mL), 17 and 81 µM.
In turn, `COc1ccc(CCNc2cc(-c3ccccn3)nc3nc(-c4ccccc4)nn23)cc1` [Compound 68, N-(4-Methoxyphenethyl)-2-phenyl-5-(pyridin-2-yl)-[1,2,4]triazolo[1,5-a]pyrimidin-7-amine] had a melting point of 146 to 148 °C. In addition, in the series with M. tuberculosis H37Rv (setting [1]), the MIC90 was more than 20 µM. Moreover, the MIC90 in the series with M. tuberculosis H37Rv is more than 20 µM. For the same compound, the IC50 in the series on HepG2 cells was more than 100 µM.
In turn, `COc1ccc(CNc2cc(-c3ccccc3)nc3ncnn23)cc1` [Compound 38, N-(4-Methoxybenzyl)-5-phenyl-[1,2,4]triazolo[1,5-a]pyrimidin-7-amine] displayed a melting point of 162 to 163 °C. For the same compound, the MIC90 in the series with M. tuberculosis H37Rv (setting [1]) was more than 20 µM. The IC50 in the series on HepG2 cells was 43 µM.
The matching figures for `COc1ccc(CCNc2cc(-c3cccnc3)nc3ncnn23)cc1` [Compound 17, N-(4-Methoxyphenethyl)-5-(pyridin-3-yl)-[1,2,4]triazolo[1,5-a]pyrimidin-7-amine]: 152 to 153 °C, more than 20 µM and more than 100 µM.

The melting point is the temperature, or range, at which the solid turns liquid.

These data come from article PMC5513444, “The synthesis and evaluation of triazolopyrimidines as anti-tubercular agents” (Bioorganic & Medicinal Chemistry, 2017).
